Results: patent publication US11919854B2, “P2RX7 modulators in therapy” (Centre national de la recherche scientifique, priority 2018, dated 2024)
Entries after “also recorded” stand apart in the source; their conditions may differ.

Key:
[1] = target: T1, mouse P2RX7 (mP2RX7) (Mus musculus, UniProt Q9Z1M0); test: Channel activity (Fluo4-AM) and large pore opening (Topro3) by flow cytometry, HEK cells expressing mP2RX7, 1 h BzATP; type: cell-based
T1 construct: expressed in transfected cells; host or cells: HEK cells
T1 sequence (Q9Z1M0 1-595): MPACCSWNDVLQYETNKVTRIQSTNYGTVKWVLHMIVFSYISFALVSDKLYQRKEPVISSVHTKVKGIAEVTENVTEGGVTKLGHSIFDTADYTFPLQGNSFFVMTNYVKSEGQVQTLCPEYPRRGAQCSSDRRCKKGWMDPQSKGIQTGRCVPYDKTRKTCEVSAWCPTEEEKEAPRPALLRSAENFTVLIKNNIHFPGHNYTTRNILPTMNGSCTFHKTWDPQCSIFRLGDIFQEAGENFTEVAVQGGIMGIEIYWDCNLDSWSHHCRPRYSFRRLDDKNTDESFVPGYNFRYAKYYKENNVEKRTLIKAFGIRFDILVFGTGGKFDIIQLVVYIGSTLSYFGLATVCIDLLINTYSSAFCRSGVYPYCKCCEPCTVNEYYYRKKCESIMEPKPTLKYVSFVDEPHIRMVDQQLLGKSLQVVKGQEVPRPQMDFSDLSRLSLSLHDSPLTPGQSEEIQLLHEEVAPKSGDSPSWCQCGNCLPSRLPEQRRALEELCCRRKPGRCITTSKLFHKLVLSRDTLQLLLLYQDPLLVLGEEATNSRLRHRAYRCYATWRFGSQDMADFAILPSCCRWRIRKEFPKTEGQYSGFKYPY
Protocol: Calcium channel activity (Fluo4AM probe) and large pore opening (Topro3 probe) were analysed by FACS on mP2RX7 HEK cells. Cells were non stimulated (NS) or treated with BzATP (500 μM) alone or in the presence of HEI2314, HEI2328, HEI2333 or HEI2336 (used at 50 μM).
Calcium channel activity (Fluo4AM probe) and large pore opening (Topro3 probe) were analysed by FACS on mock and mP2RX7 HEK cells. Cells were non stimulated (NS) or treated with BzATP (500 μM) alone or in the presence of HEI2328 used at 50 μM.
2.1. […] Cation channel activity is assayed with the Fluo4 AM (Invitrogen) probe and opening of large pore with Topro3 (Invitrogen). In each experiment 2×10^6 cells were incubated with 50 nM Fluo4-AM for 30 minutes. After washing, cells were treated with 500 μM BzATP (3′-O-(4-benzoyl)benzoyl ATP) for 1 h, or non-treated, in presence of the compounds of the invention at 50 μM. When indicated, the Topro3 probe (8.5 nM) was added during the 1 h stimulation time. Fluorescence was assayed by flow cytometry.

[2] = target: T2, human P2RX7 (Homo sapiens, UniProt Q99572); test: Calcium influx and large cation permeation by FACS, 15 min, HEK cells with human P2RX7, increasing doses of HEI3090; type: cell-based; conditions: increasing doses of HEI3090, 7.8 μM BzATP
T2 construct: expressed in transfected cells; host or cells: HEK cells
T2 sequence (Q99572 1-595): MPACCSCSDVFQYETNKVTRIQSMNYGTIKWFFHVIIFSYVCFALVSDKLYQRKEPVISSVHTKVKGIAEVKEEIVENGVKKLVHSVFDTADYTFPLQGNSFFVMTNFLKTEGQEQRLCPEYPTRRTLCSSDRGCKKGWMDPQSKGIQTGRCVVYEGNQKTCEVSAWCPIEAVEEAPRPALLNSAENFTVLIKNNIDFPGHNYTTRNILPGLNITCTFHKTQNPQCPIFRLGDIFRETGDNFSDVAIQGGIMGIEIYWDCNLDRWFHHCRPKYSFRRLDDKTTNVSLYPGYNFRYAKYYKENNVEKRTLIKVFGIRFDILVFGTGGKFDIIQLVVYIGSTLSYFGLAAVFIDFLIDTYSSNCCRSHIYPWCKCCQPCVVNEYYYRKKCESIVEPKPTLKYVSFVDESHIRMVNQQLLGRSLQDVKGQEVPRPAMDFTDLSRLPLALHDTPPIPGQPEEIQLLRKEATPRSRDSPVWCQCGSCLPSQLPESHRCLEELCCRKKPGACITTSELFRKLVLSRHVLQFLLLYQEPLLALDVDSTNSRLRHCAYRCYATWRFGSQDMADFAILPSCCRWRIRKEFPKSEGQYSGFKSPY
Protocol: Calcium influx (Fluo-AM positive cells) and large cation permeation (Topro3 positive cells) were assayed by FACS 15 min after stimulation of HEK cells transfected with the human P2RX7 that were treated with increasing doses of HEI3090 in the presence of 7.8 μM BzATP.
Complementary analyses were also performed to document the biological activity of HEI3090, the more soluble version of HEI2328, on both HEK cells expressing mouse P2RX7 (mP2RX7) (FIG. 14) or human P2RX7 (hP2RX7) (FIG. 15). BzATP or ATP stimulate channel activity, an event that occurred in the first minutes of P2RX7 stimulation. […] The same positive effect was observed on cells expressing human P2RX7 (FIG. 15).

[3] = system: LLC; test: LLC tumor growth, HEI3090 combined with anti-PD-1 checkpoint inhibitor; type: in vivo, C57BL6J mice
Protocol: b-g Effect of HEI3090 and anti PD-1 checkpoint inhibitor on LLC tumor growth. 5.105 LLC were injected s.c. into the flank of C57BL6J mice. Mice were treated i.p. with vehicle (PBS, 10% DMSO) or with HEI3090 (1.5 mg/kg in PBS, 10% DMSO) from day 1 to day 18. Each mouse received 200 μg of anti PD-1 i.p. at day 4.7.10.13 and 16. Tumor sizes were measured from day 1 to day 90. Mice were sacrificed when tumor reached 100 mm2. For contralateral re-challenge, cured mice or naive age matched C57BL6J mice were injected s.c. in the opposite flank with 2.105 LLC. At day 150, re-challenged treated mice or C57BL/6J naive mice were sacrificed to sort CD8+ T cells. 2.105 CD8+ T cells were adoptively transferred in other C57BL6J naive mice. Then mice were injected s.c with 2.105 LLC (b). Spaghetti plots of LLC tumor growth of vehicle and anti-PD-1 treated mice or HEI3090 and anti-PD-1 treated mice (c). Each curve represents one mouse. Survival curves of mice treated with vehicle or HEI3090 and isotype control or vehicle or HEI3090 and anti-PD-1 (d). Tumor growth and survival curves after re-challenge of cured mice treated with HEI3090 and anti-PD-1 or age matched C57BL/6J mice (e,f). Tumor growth after i.v. injection of CD8+ T cells from naïve mice or re-challenged treated mice (g).

| Structure (SMILES) | Topro3 positive cells ([1]; HEI2328 50 μM combined with BzATP 500 μM, 1 h, mP2RX7 cells) [%] | channel activity (Fluo4-AM) ([1]; combined with BzATP 500 μM, 1 h stimulation) | Topro3 entry (large pore opening) ([1]; compound 50 μM, BzATP 500 μM, 1 h, mP2RX7 HEK cells) | channel activity and large pore opening, compound alone ([1]; used alone (no BzATP) on Mock and mP2RX7 cells, 50 μM) | increase of Ca influx (Fluo-AM positive cells) [2] [fold] | increase of large cation influx (Topro3 positive cells) [2] [fold] | cure of tumor bearing mice ([3]; HEI3090 1.5 mg/kg ip day 1-18 combined with anti PD-1 200 μg ip) | memory T cell response ([3]; HEI3090 combined with anti PD-1, re-challenge of cured mice) |
| --- | --- | --- | --- | --- | --- | --- | --- | --- |
| O=C(NCc1ccc(Cl)cc1Cl)[C@@H]1CCC(=O)N1C(=O)Nc1ccc(Cl)c(Cl)c1 [HEI2328, (S)—N^2-(2,4-Dichlorobenzyl)-N^1-(3,4-dichlorophenyl)-5-oxopyrrolidine-1,2-dicarboxamide] | 61 | did not impact channel activity | increase Topro3 entry only in presence of BzATP; also recorded: most active | did induce neither channel activity nor large pore opening |  |  |  |  |
| O=C(NCc1ccc(Cl)cc1Cl)[C@@H]1CCC(=O)N1C(=O)Nc1ccc(Cl)nc1 [HEI3090, (S)—N^1-(6-Chloropyridin-3-yl)-N^2-(2,4-dichlorobenzyl)-5-oxopyrrolidine-1,2-dicarboxamide] |  |  |  |  | 3 | 3 | cured mice bearing tumors | set up a memory T cell response |
